Experiment [1] concerns the target T1, human DLK (Homo sapiens, UniProt Q12852).
T1 sequence (Q12852 1-859): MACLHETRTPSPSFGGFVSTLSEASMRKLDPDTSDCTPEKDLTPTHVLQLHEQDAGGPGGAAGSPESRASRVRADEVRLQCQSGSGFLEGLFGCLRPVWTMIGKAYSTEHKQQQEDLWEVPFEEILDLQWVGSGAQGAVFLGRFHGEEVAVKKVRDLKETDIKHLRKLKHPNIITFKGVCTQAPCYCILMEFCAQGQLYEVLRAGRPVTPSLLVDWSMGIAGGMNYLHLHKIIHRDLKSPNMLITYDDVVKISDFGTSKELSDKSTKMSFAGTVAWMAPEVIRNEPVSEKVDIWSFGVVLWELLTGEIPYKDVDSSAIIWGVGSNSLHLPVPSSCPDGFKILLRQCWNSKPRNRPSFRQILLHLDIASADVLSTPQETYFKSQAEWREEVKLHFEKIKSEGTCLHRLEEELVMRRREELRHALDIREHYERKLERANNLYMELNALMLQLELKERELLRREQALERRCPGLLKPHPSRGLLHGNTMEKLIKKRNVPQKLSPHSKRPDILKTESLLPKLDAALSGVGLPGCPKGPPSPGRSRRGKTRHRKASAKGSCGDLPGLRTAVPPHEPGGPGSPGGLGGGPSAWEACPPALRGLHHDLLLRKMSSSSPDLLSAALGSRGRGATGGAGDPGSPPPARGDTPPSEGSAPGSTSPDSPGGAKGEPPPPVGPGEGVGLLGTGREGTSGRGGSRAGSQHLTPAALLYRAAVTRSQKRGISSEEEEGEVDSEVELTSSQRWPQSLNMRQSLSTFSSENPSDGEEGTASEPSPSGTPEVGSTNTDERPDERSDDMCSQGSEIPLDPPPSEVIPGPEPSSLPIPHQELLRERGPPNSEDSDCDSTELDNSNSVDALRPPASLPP
Briefly: Phospho-cJun Cellular Assay. Set-up: expressed in transfected cells. The following applies: HEK293 cells stably transfected with Dox-inducible human DLK; p-cJun (Ser63); 5 h compound incubation. The class given is cell-based. As for the experimental part: Phospho-cJun Cellular Assay
HEK293 cells stably transfected with a Dox-inducible human DLK were plated into a 384-well plate in 20 μl (40,000 cells/well) of DMEM medium (without phenol red) containing 10% fetal bovine serum, 1.5 μg/ml doxycycline and 1 μg/ml puromycin. The cells as negative control were grown in the absence of doxycycline. The plate was incubated at 37° C., 5% CO2 for 20 h, before DMSO (control) or compounds diluted in medium were added. The cells were incubated at 37° C. for an additional 5 h, followed by lysis and the addition detection antibodies from p-cJun (Ser63) cellular assay kit (Cisbio) per manufacturer protocol. The standard dose response curves were fitted by Genedata Screener software using the variable-slope model: Signal=Signalnegative control+(SignalDMSO control−Signalnegative control)/(1+(IC50/Dose)̂Hill slope). Only signal and dose in the equation were treated as known values.

In experiment [2] the target is T1, human DLK. Briefly: DLK Kd Determinations (KINOMEscan KdELECT, DiscoveRx). Set-up: full length of human DLK (amino acids 1-859); host or cells: transiently transfected HEK293 cells; unpurified extract. The following applies: fusion protein of full length human DLK (amino acids 1-859) and NFkB DNA binding domain; qPCR readout; duplicate. In outline:
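Kd values were fitted by Hill equation (slope −1) from duplicate 11-point 3-fold dilutions starting at 30,000 nM. Bead-immobilized ligand competed with compound for DNA-tagged full-length human DLK fusion in HEK293 extract (final DMSO 0.9%, 1 h, room temperature), with qPCR readout of bound kinase.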

Consider `CC(C)c1nc(-c2cnc(N)c(OC(F)(F)F)c2)cn1[C@H]1[C@@H]2CC(N3CCOCC3)C[C@@H]21` (single isomer, unassigned) [Example 19a], for which inhibition on human DLK [1] was half-maximal at 666 nM (IC50). The compound further registered a Kd at human DLK [2] of 76 nM.

Regarding `CC(C)c1nc(-c2cnc(N)c(OC(F)(F)F)c2)cn1[C@H]1[C@@H]2CC(N3CCOCC3)C[C@@H]21` (single isomer, unassigned) [Example 19b], on human DLK [1], the midpoint of inhibition, the IC50, lay at 493 nM. The compound further came in with a Kd on human DLK [2] of 38 nM.

As for `CC(C)c1nc(-c2cnc(N)c(OC(F)(F)F)c2)cn1[C@H]1[C@@H]2CC(N3CCCOCC3)C[C@@H]21` (single isomer, unassigned) [Example 20a, 5-(1-(3-(1,4-oxazepan-4-yl)bicyclo[3.1.0]hexan-6-yl)-2-isopropyl-1H-imidazol-4-yl)-3-(trifluoromethoxy)pyridin-2-amine], 965 nM corresponded to half-maximal inhibition on human DLK [1] (IC50). In addition, on human DLK [2], the dissociation constant Kd was 15 nM.

As to `CC(C)c1nc(-c2cnc(N)c(OC(F)(F)F)c2)cn1[C@H]1[C@@H]2CC(N3CCCOCC3)C[C@@H]21` (single isomer, unassigned) [Example 20b, 5-(1-(3-(1,4-oxazepan-4-yl)bicyclo[3.1.0]hexan-6-yl)-2-isopropyl-1H-imidazol-4-yl)-3-(trifluoromethoxy)pyridin-2-amine], the half-inhibitory concentration (IC50) at human DLK [1] was found to be 1050 nM. Moreover, on human DLK [2], binding was characterised by a dissociation constant (Kd) of 44 nM.

For the compound `CC(C)c1nc(-c2cnc(N)c(C(F)(F)F)c2)cn1[C@H]1[C@@H]2CC(O)C[C@@H]21` (single isomer, unassigned) [Example 48a, 6-(4-(6-amino-5-(trifluoromethyl)pyridin-3-yl)-2-isopropyl-1H-imidazol-1-yl)bicyclo[3.1.0]hexan-3-ol], it took 1590 nM to reach half-maximal inhibition at human DLK [1] (IC50). On human DLK [2], this compound showed a Kd of 84 nM.

With `CC(C)c1nc(-c2cnc(N)c(C(F)(F)F)c2)cn1[C@H]1[C@@H]2CC(O)C[C@@H]21` (single isomer, unassigned) [Example 48b, 6-(4-(6-amino-5-(trifluoromethyl)pyridin-3-yl)-2-isopropyl-1H-imidazol-1-yl)bicyclo[3.1.0]hexan-3-ol], half-maximal inhibition against human DLK [1] (IC50) required 1240 nM. The same compound had a Kd on human DLK [2] of 59 nM.

With `CC(C)c1nc(-c2cnc(N)c(C(F)(F)F)c2)cn1[C@H]1[C@@H]2CC(N3CCOCC3)C[C@@H]21` (single isomer, unassigned) [Example 127a], half-maximal inhibition against human DLK [1] (IC50) was put at 939 nM. For the same compound, the dissociation constant Kd at human DLK [2] turned out to be 52 nM.

Consider `CC(C)c1nc(-c2cnc(N)c(C(F)(F)F)c2)cn1[C@H]1[C@@H]2CC(N3CCOCC3)C[C@@H]21` (single isomer, unassigned) [Example 127b], for which, at human DLK [1], 633 nM corresponded to half-maximal inhibition (IC50). For the same compound, the dissociation constant Kd on human DLK [2] stood at 61 nM.

At human DLK [1], `Nc1ncc(-c2cn([C@H]3[C@@H]4CC(N5CCOCC5)C[C@@H]43)c(C3CC3)n2)cc1C(F)(F)F` (single isomer, unassigned) [Example 128a, 5-(2-cyclopropyl-1-(3-morpholinobicyclo[3.1.0]hexan-6-yl)-1H-imidazol-4-yl)-3-(trifluoromethyl)pyridin-2-amine] had an IC50 of 748 nM. This compound also registered an equilibrium dissociation constant (Kd) at human DLK [2] of 40 nM.

`Nc1ncc(-c2cn([C@H]3[C@@H]4CC(N5CCOCC5)C[C@@H]43)c(C3CC3)n2)cc1C(F)(F)F` (single isomer, unassigned) [Example 128b, 5-(2-cyclopropyl-1-(3-morpholinobicyclo[3.1.0]hexan-6-yl)-1H-imidazol-4-yl)-3-(trifluoromethyl)pyridin-2-amine] came in with an IC50 against human DLK [1] of 755 nM. Further, the dissociation constant (Kd) on human DLK [2] stood at 22 nM.

With `CN1CCN(C2C[C@@H]3[C@H](C2)[C@H]3n2cc(-c3cnc(N)c(C(F)(F)F)c3)nc2C2CC2)CC1` (single isomer, unassigned) [Example 129a, 5-(2-cyclopropyl-1-(3-(4-methylpiperazin-1-yl)bicyclo[3.1.0]hexan-6-yl)-1H-imidazol-4-yl)-3-(trifluoromethyl)pyridin-2-amine], the IC50 at human DLK [1] is 503 nM. Further, the Kd on human DLK [2] worked out at 12.8 nM.

At human DLK [1], `CN1CCN(C2C[C@@H]3[C@H](C2)[C@H]3n2cc(-c3cnc(N)c(C(F)(F)F)c3)nc2C2CC2)CC1` (single isomer, unassigned) [Example 129b, 5-(2-cyclopropyl-1-(3-(4-methylpiperazin-1-yl)bicyclo[3.1.0]hexan-6-yl)-1H-imidazol-4-yl)-3-(trifluoromethyl)pyridin-2-amine] showed an IC50 of 633 nM. This compound displayed a Kd at human DLK [2] of 16 nM.

Consider `CC(C)c1nc(-c2cnc(N)c(OC(F)(F)F)c2)cn1[C@H]1[C@@H]2CC(N3CCN(C)CC3)C[C@@H]21` (single isomer, unassigned) [Example 133a, 5-(2-isopropyl-1-(3-(4-methylpiperazin-1-yl)bicyclo[3.1.0]hexan-6-yl)-1H-imidazol-4-yl)-3-(trifluoromethoxy)pyridin-2-amine], for which half-maximal inhibition against human DLK [1] (IC50) was put at 896 nM. The same compound had a dissociation constant (Kd) at human DLK [2] of 20 nM.

For `CC(C)c1nc(-c2cnc(N)c(OC(F)(F)F)c2)cn1[C@H]1[C@@H]2CC(N3CCN(C)CC3)C[C@@H]21` (single isomer, unassigned) [Example 133b, 5-(2-isopropyl-1-(3-(4-methylpiperazin-1-yl)bicyclo[3.1.0]hexan-6-yl)-1H-imidazol-4-yl)-3-(trifluoromethoxy)pyridin-2-amine], the concentration for half-maximal inhibition (IC50) at human DLK [1] was determined as 645 nM. Moreover, at human DLK [2], the Kd was 21 nM.

`Nc1ncc(-c2cn([C@H]3[C@@H]4CC(N5CCOCC5)C[C@@H]43)c(CC3CC3)n2)cc1C(F)(F)F` (single isomer, unassigned) [Example 138a, 5-(2-(cyclopropylmethyl)-1-(3-morpholinobicyclo[3.1.0]hexan-6-yl)-1H-imidazol-4-yl)-3-(trifluoromethyl)pyridin-2-amine] registered a half-maximal inhibitory concentration (IC50) against human DLK [1] of 1010 nM. For the same compound, the Kd at human DLK [2] is 23 nM.

For `Nc1ncc(-c2cn([C@H]3[C@@H]4CC(N5CCOCC5)C[C@@H]43)c(CC3CC3)n2)cc1C(F)(F)F` (single isomer, unassigned) [Example 138b, 5-(2-(cyclopropylmethyl)-1-(3-morpholinobicyclo[3.1.0]hexan-6-yl)-1H-imidazol-4-yl)-3-(trifluoromethyl)pyridin-2-amine], the half-maximal inhibitory concentration (IC50) against human DLK [1] is 1050 nM. On human DLK [2], this compound yielded a Kd of 34 nM.

On human DLK [1], `Nc1ncc(-c2cn([C@H]3[C@@H]4CC(N5CCOCC5)C[C@@H]43)c(C3CC3)n2)cc1OC(F)(F)F` (single isomer, unassigned) [Example 139a, 5-(2-cyclopropyl-1-(3-morpholinobicyclo[3.1.0]hexan-6-yl)-1H-imidazol-4-yl)-3-(trifluoromethoxy)pyridin-2-amine] came in with an IC50 of 544 nM. For the same compound, the Kd at human DLK [2] worked out at 37 nM.

Turning to `CN1CCN(C2C[C@@H]3[C@H](C2)[C@H]3n2cc(-c3cnc(N)c(C(F)(F)F)c3)nc2CC2CC2)CC1` (single isomer, unassigned) [Example 161b, 5-(2-(cyclopropylmethyl)-1-(3-(4-methylpiperazin-1-yl)bicyclo[3.1.0]hexan-6-yl)-1H-imidazol-4-yl)-3-(trifluoromethyl)pyridin-2-amine], on human DLK [1], half-maximal inhibition (IC50) required 629 nM.

On human DLK [1], `Nc1ncc(-c2cn([C@H]3[C@@H]4CC(N5CCN(CCF)CC5)C[C@@H]43)c(CC3CC3)n2)cc1C(F)(F)F` (single isomer, unassigned) [Example 162a, 5-(2-(cyclopropylmethyl)-1-(3-(4-(2-fluoroethyl)piperazin-1-yl)bicyclo[3.1.0]hexan-6-yl)-1H-imidazol-4-yl)-3-(trifluoromethyl)pyridin-2-amine] came in with an IC50 of 1040 nM.

`CC(C)c1nc(-c2cnc(N)c(C(F)(F)F)c2)cn1[C@H]1C[C@@H](N2CCOCC2)C1` [Example 44, 5-(2-isopropyl-1-((1s,3s)-3-morpholinocyclobutyl)-1H-imidazol-4-yl)-3-(trifluoromethyl)pyridin-2-amine] yielded an IC50 on human DLK [1] of 7690 nM.

For the origin of these results see US20180057507A1, “INHIBITORS OF DUAL LEUCINE ZIPPER (DLK) KINASE FOR THE TREATMENT OF DISEASE” (Board of Regents, The University of Texas System, priority 2016, published 2018).
